Experimental data taken from patent US20010025105A1, “Certain substituted 1-aryl-3-piperazine-1'-yl propanones” (Molecular Geriatarics Corporation, priority 1997, published 2001).

Columns and labels:
[1] = test system: PHF epitope levels in human brain tissue; assay: Retrospective study of autopsy brain tissue of chronically treated patients, ALZ-EIA method; assay type: in vivo; conditions: frontal (Broadman area 10) and temporal (Broadman area 38) regions, FIGS. 4A and 4B
Procedure: Frontal and cortical brain tissue specimens obtained at autopsy from patients chronically treated with chlorpromazine were analyzed using the ALZ-EIA method previously described (Ghanbari, H A, et al, JAMA, 263, 2907, 1990). […] The brain tissue (post-mortem) from approximately the same number of (age matched) normal controls and Alzheimer's Disease patients were also analyzed and are presented in these figures as negative and positive controls (for normal and AD, respectively). […] Bick, K L. Raven Press, New York, 1994).

[2] = test system: TG3 immunoreactivity in OKA treated MSN1a cells; assay: MSN1a cell culture model, ELISA with TG3 antibody, okadaic acid treated cells; assay type: cell-based, human; conditions: Homo sapiens, 1 μM OKA, 2 hrs at 37° C., read-out: IC50 for inhibition of TG3 immunoreactivity in OKA treated MSN1a cells
Method in brief: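 Human MSN1a neuroblastoma cells (2×10^4/well) in KRH pH 7.4 were exposed 2 h at 37 °C to 1 μM okadaic acid plus 0–64 μM compound (0.26% DMSO final). Lysates were coated onto ELISA plates and probed with TG3 and an alkaline phosphatase secondary. Absorbance was read at 405 nm with p-nitrophenyl phosphate substrate.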

[3] = test system: PHF epitopes in human brain tissue; assay: Retrospective study of autopsy brain tissue of chronically treated patients, direct ELISA using TG3 antibody; assay type: in vivo; conditions: N 51, sum of absorbance readings for 8 dilutions
Description: In a subsequent study, 51 additional patients were identified and the analysis was repeated as above using the TG3 antibody in an ELISA format.

[4] = test system: paired helical filament epitopes in MSN1a cells; assay: Western blot of PHF-1 immunoreactivity in lysates of MSN1a cells; assay type: cell-based, human; conditions: 100 μM chlorpromazine, 2 hours at 37° C.
Procedure: These compounds are effective at micromolar concentrations, with increased potency being evident when cells are treated prior to the addition of okadaic acid. The effective concentrations appear to be in the range at which these drugs are present in the brain following chronic treatment of psychiatric patients (Svendsen, C N, Psychopharnacology, 90, 316-321, 1986). […] The cells were isolated by centrifugation, boiled for 10 minutes and […] protein from the resulting heat stable supernatants were loaded per lane on an SDS-PAGE gel. The gel was electrophoretically transferred to nitrocellulose membrane and then immnunostained with PHF-1. […] The use of the MSN1a cell culture model for screening of novel compounds for therapeutic activity in AD is, therefore, quite warranted.

Compound: CN(C)CCCN1c2ccccc2Sc2ccc(Cl)cc21 [Chlorpromazine, chlorpromazine]
- PHF epitope levels (ALZ-EIA) [1]: low PHF epitope levels similar to normal controls
- IC50 [2]: ~70 µM
- SIGNAL ± SEM Frontal ([3]; post-mortem frontal brain tissue): 0.12 ± 0.11
- SIGNAL ± SEM Temporal ([3]; post-mortem temporal brain tissue): 0.16 ± 0.11
- production of paired helical filament epitopes (PHF-1 immunoreactivity, western blot) ([4]; FIG. 3): markedly inhibit the expression of PHF epitopes
- production of paired helical filament epitopes (PHF-1 immunoreactivity, western blot) ([4]; FIG. 3, listed as CPZ): greatly decreased the production of paired helical filament epitopes
